Here are results for 1 substance from US20230134003A1, “METHOD AND APPARATUS FOR CLINICAL TESTING” (Lightcast Discovery Ltd, priority 2019, published 2023).

The assay deals with sample strain of E. coli bacteria. The assay is described as follows: Panel merge and MIC determination in microdroplets on oEWOD chip. In kind it is cell-based. The settings on record: gentamicin in tryptic soy broth (TSB) droplets merged with droplets of 1-3 bacteria; growth pattern observed within three hours of reducing the concentration. The procedure:
Droplets were paired together so that the post-merge droplets were all roughly of uniform size. Every third droplet was labelled as a control and remained unpaired. The smaller droplets in this example contained the antibiotic gentamicin at a concentration of 500 ng/mL in tryptic soy broth (TSB), whilst each of the larger droplets contained 1-3 bacteria in TSB. […] Within three hours of reducing the concentration, a robust growth behaviour pattern was observed, allowing for a determination of the MIC. In this particular case, the MIC was determined to lie at approximately 300 pg/mL.

For the substance gentamicin, the MIC entry is recorded as “approximately 300 pg/mL”.
